A short description of data set [1]: Purine levels in arterial plasma before, during and after adenosine-induced controlled hypotension (HPLC). The following applies: for concentration: Table I, mean ± SEM. The method, then:
(§1) Blood gases were measured with appropriate electrodes for pH, PCO2, and PO2 (Radiometer, Copenhagen). The hemoglobin concentration was determined spectrophotometrically. Samples for the determination of adenosine and its metabolites were collected as described by Sollevi et al., Acta Physiol. Scand., 120: 171-76 (1984). Adenosine and inosine were purified and analyzed by HPLC as described by Fredholm and Sollevi., J. Physiol. (London), 313: 351-67 (1981). Hypoxanthine, xanthine, and uric acid were analyzed by HPLC according to the method of Schweinsberg and Loo., J. Chromatogr., 181: 103-7 (1980). Arterial levels of dipyridamole were determined by HPLC. J. Chromatogr., 162: 98-103 (1979). Blood lactate was measured according to Tfelt-Hansen and Siggard-Andersen. Scand. Clin. Lab. Invest., 27:15-19 (1971).
(§2) Measurements and blood samplings were performed immediately before hypotension, as late as possible during hypotension (1-5 min before terminating the infusion) and approximately 30 min after the hypotensive period.
(§3) Dipyridamole (5 mg. per ml) was infused iv (0.3-0.4 mg. per kg. over a period of 5-10 min) approximately 20 minutes prior to the induction of controlled hypotension. […] (See Pedersen, J. Chromatogr., 162: 98-103 (1979).
(§4) The infusion was started at a rate of 0.01 mg. per kg. per minute, which was doubled at 15 second intervals until the desired MABP level of 40-50 mmHg was reached. […] Serum creatinine was determined before and on two consecutive days after operation. The standard ECG was recorded the day before and the day after operation.
(§5) The statistical significance (control 1 vs. adenosine and control 1 vs. control 2) was determined by Student's t test for paired data. A P value of <0.05 was regarded as significant.
The purine levels of nine of the patients were determined prior to, during and after adenosine-induced controlled hypotension.

Data set [2] is described as follows: Plasma adenosine and metabolite concentrations during cardiopulmonary bypass (HPLC). As to conditions: for concentration: read-out: Venous concentration, 20 min. As for the experimental part: In six cases the plasma adenosine levels were determined by high performance liquid chromatography (HPLC) (Fredholm and Sollevi, J. Physiol. (London), 313: 351-67 (1981) in arterial and in venous (venous lines to the oxygenator) blood. The adenosine metabolites inosine, hypoxanthine and uric acid were also determined by HPLC. The samples were collected as previously described (Sollevi, Acta. Physiol. Scand., 121: 165-72 (1984) at the intervals of 10, 20, 40 and 80 minutes during CPB and 20 minutes after CPB.
Statistical significance (controls v. adenosine group) was determinted with Student's t-test for unpaired data. For significance within the groups the Wilcoxon Rank Sum test was used. p […] 0.05 was regarded as significant.

The test system of data set [3] is systemic arterial blood pressure and central hemodynamics. The data set is described as follows: Controlled hypotension during anesthesia: central hemodynamics (dipyridamole-pretreated cerebral aneurysm surgery patients). The following applies: in five of the patients. The method, then: One hour before the operation the patients were premedicated orally with diazepam (10-20 mg.) Atropine (0.5 mg) and droperidol (0.1 mg. per kg.) were given intravenously before induction of anesthesia. Induction was started with thiopental (5 mg. per kg) followed by phenoperidine (1-2 mg), a synthetic opiate with pharmacodymanics resembling fentanyl but with a longer duration of action and 1/10 of its analgesic potency.
Pancuronium bromide (0.1 mg per kg) was given to facilitate endotracheal intubation. Anesthesia was maintained by supplementary doses of phenoperidine and droperidol, as required. […] Phenoperidine was supplemented regularly to prevent the blood pressure from exceeding the preanesthetic level (approx. 1 mg/30-60 min). Controlled hyperventilation was employed with a humidified gas mixture of 60% N2 O in oxygen to maintain PaCO2 values at approximately 30 mmHg (±1.5/SEM). Mannitol (1-1.5 g. per kg) was given routinely at the start of the operation (e.g., 1-2 hours prior to the controlled hypotension). The patients were operated on in the horizontal supine position.
A 1.2-mm plastic cannula was introduced into the left radial artery to monitor systemic arterial blood pressure (MABP) and collect arterial blood. A balloon-tipped, flow-directed, quadruple lumen Swan-Ganz catheter (Model 93A-831-7.5 F, VIP) was inserted percutaneously via the left basilic vein, and its correct position in the pulmonary artery was determined by pressure tracings. The catheter was used for the monitoring of mean right atrial pressure (RAP), mean pulmonary artery pressure (PAP), and mean pulmonary capillary wedge pressure (PCWP) for the determination of cardiac output and collection of mixed venous blood and for the infusion of adenosine. Another plastic cannula was introduced percutaneously, in a retrograde direction, into the right jugular bulb for the collection of blood. The correct position was verified by x-ray.
The ECG was monitored with a standard chest (V5) lead. Heart rate was determined from the R-R interval. Blood pressures were measured by transducers placed at the midthoracic level. Cardiac output (QT) was determined in triplicate according to the thermodilution technique with a cardiac output computer (Edwards Lab, model 9510). Isotonic glucose, 10 ml at 1° C., was used as a thermal indicator. The ECG, heart rate, blood pressures, and thermodilution curves were recorded on a Grass® polygraph.
as §2, §3, §4
Systemic vascular resistance (SVR) was derived from the formula [formula] and pulmonary vascular resistance (PVR) from the formula [formula]
as §5

Data set [4] relates to adenosine uptake by red blood cells. The following applies: cited from earlier work.
Data set [5] concerns heart muscle. The following applies: injection; cited from earlier work.
Data set [6] is described as follows: Plasma level of dipyridamole (HPLC). The data set is classed as in vivo, human. As to conditions: 0.3-0.4 mg/kg iv over 5-10 min; SEM; read-out: dipyridamole plasma level during hypotensive periods. The method, then:
as §1, §3

For data set [7], the system named is mean arterial blood pressure. As to conditions: dipyridamole 1 mg/kg, dogs; cited from earlier work.
Data set [8] deals with cardiovascular system. As to conditions: cited from earlier work.
In data set [9] the test system is myocardial blood flow. As to conditions: investigated in abdominal vascular surgery; words; cited from earlier work.
Where [10] appears, read: during / after adenosine infusion, in words.
[11] abbreviates: read-out: Purine level in arterial plasma, after hypotension, 20-40 min, 20-40 min after hypotension.
Where [12] appears, read: read-out: Purine level in arterial plasma, during hypotension, during i.v. adenosine infusion, dipyridamole-pretreated.
Where [13] appears, read: CPB 10', adenosine infusion 0.1 mg/kg/min, n = 6.
Where [14] appears, read: CPB 20', adenosine infusion 0.1 mg/kg/min, n = 6.
The mark [15] stands for this setting: CPB 40', adenosine infusion 0.1 mg/kg/min, n = 6.
Setting [16] is: CPB 80', adenosine infusion 0.1 mg/kg/min, n = 6.
Where [17] appears, read: human, venous plasma, iv, 0.1 mg/kg/min, Venous concentration.

SMILES strings stand for the structures. Entries after “also recorded” stand apart in the source; their conditions may differ. Like-named read-outs stand apart in the source and are kept apart here.

In the case of `O=c1[nH]cnc2nc[nH]c12` [Hypoxanthine, hypoxanthine], the “change of adenosine metabolite levels” value in [1] (in vivo) is reported as “increased during the infusion”. Further, the Arterial concentration in data set [2] (in vivo) turned out to be 4.2 ± 0.9 µM.
On to `OC[C@H]1O[C@@H](n2cnc3c(O)ncnc32)[C@H](O)[C@@H]1O` [Inosine, inosine], for which the “change of adenosine metabolite levels” value in [1] (setting [10]) was “remained slightly above basal levels 20-40 minutes after the infusion”; in [1] (during / after adenosine infusion, in words, listed as inosine), “increased during the infusion”. In addition, the concentration in [1] (read-out: Purine level in arterial plasma, after hypotension, 3-9 min, 3-9 min after hypotension) came out at 690 ± 260 nM; in data set [1] (setting [11]), 290 ± 150 nM; in data set [1] (setting [12]), 3010 ± 1480 nM; in [2] (20' post CPB, n = 6), 400 ± 100 nM; in [2] (setting [14]), 2400 ± 1200 nM. Also, the Arterial concentration in data set [2] (20' post CPB, n = 6) worked out at 0.4 ± 0.1 µM; in data set [2] (setting [13]) it was 1.3 ± 0.7 µM; in data set [2] (setting [14]), 2.5 ± 1.0 µM; in data set [2] (setting [15]), 1.2 ± 0.3 µM; in [2] (setting [16]), 1.4 ± 0.4 µM. The concentration at 10 min in data set [2] (setting [17]) is 900 ± 300 nM. Besides, in data set [2] (setting [17]), the concentration at 40 min was 1600 ± 500 nM. Besides, the concentration at 80 min in data set [2] (setting [17]) turned out to be 1600 ± 400 nM. Moreover, the “metabolite elevation during infusion” value in data set [2] (in vivo) is reported as “consistently elevated”.
As to `O=c1[nH]c(=O)c2[nH]c(=O)[nH]c2[nH]1` [Uric Acid, uric acid], in [1] (setting [10]), the “change of adenosine metabolite levels” value is reported as “unaffected”. Also, the concentration in data set [1] (setting [11]) was 200000 ± 28800 nM; in data set [1] (setting [12]), 198000 ± 22700 nM. Also, the Arterial concentration came to 260 ± 34 µM in data set [2] (20' post CPB, n = 6); 260 ± 32 µM in [2] (setting [13]); 269 ± 35 µM in data set [2] (setting [14]); 250 ± 32 µM in data set [2] (setting [15]); 249 ± 30 µM in data set [2] (setting [16]).
Turning to `O=c1[nH]c(=O)c2[nH]cnc2[nH]1` [Xanthine, xanthine], in [1] (in vivo), the “change of adenosine metabolite levels” value is reported as “unaffected”.
On to `OCCN(CCO)c1nc(N2CCCCC2)c2nc(N(CCO)CCO)nc(N3CCCCC3)c2n1` [dipyridamole], for which the “decrease of MABP by dipyridamole infusion” value in data set [3] was “approximately 10 mmHg”. Also, the “adenosine uptake inhibition” value is recorded as “inhibiting cellular uptake of adenosine” in data set [4] and “adenosine uptake inhibitor” in data set [4] (listed as Dipryridamol). In addition, in [5], the “redistribution of flow within heart muscle” value is “augment the redistribution of flow within the heart muscle”. Further, the concentration in data set [6] was found to be 1200 ± 300 nM. Besides, the “reduction of mean arterial blood pressure by dipyridamole” value in data set [7] was 20%.
On to `NNc1nncc2ccccc12` [hydralazine], for which the “heart rate” value in [8] (in vivo) was “increase heart rate”.
On to `FC(F)OC(Cl)C(F)(F)F` (stereo not drawn) [isoflurane], for which, in data set [8] (in vivo), the “cardiac blood flow” value is on record as “tendency to reduce cardiac blood flow”. Moreover, the “coronary flow / coronary blood flow” value in [9] was “no beneficial effect; also recorded: may reduce coronary blood flow”.
For the molecule `COc1cc2nc(N3CCN(C(=O)c4ccco4)CC3)nc(N)c2cc1OC` [prazosin], in [8] (in vivo), the “heart rate” value is given as “increase heart rate”; the “onset and predictability of action” value was “slow onset and unpredictable action”.
For the molecule `CCCCC[C@H](O)/C=C/[C@@H]1[C@H]2C/C(=C/CCCC(=O)O)O[C@H]2C[C@H]1O` [prostacyclin], the “systemic vasodilation and hypotension” value in [8] (coronary bypass surgery) was “severe systemic vasodilation and hypotension”.

The values are drawn from US5104859A, “Continuous administration of adenosine to reduce pulmonary vascular resistance” (priority 1990, dated 1992).
